Laboratory results taken from patent publication US7718768B2, “Biologically active peptide [sequence]” (CMS Peptides Patent Holding Company Limited, priority 2001, dated 2010).
Where “and” joins values, the source holds several entries; their conditions need not be identical. Equal values may be shown once. Marks after values point to notes of the source that are not given here. No end group written: not given here.

Experiments:
T lymphocyte [1] = assay: T lymphocyte transformation test (ConA, MTT) on spleen cells of treated mice; type: in vivo, BALB/c mice; design: key: OD of assay wells divided by OD of control wells; conditions: IFN-γ and IL-2 groups 3×10^5 IU/kg/day, X ± SD
Protocol: The above substances were all dissolved in 0.5 ml saline and injected intraperitoneal (i.p.) for 15 continuous days, once per day.
(§1) Ten mice per group. The day after the last test substance administration, the mice were sacrificed by cervical dislocation. The spleen was isolated aseptically and manually dispersed in cold D-Hank's solution using an injection needle. The dispersed cell suspension was further sieved through a 100 gauge 150 μm diameter stainless steel sieve. After centrifugation at 200 g for 10 minutes, the supernatant was discarded. The cell pellet was re-suspended in 10 volume of Tris-NH4Cl buffer and then kept standing still for 10 minutes at room temperature. The suspended cells were collected by centrifugation at 150 g for 10 minutes. The cells were washed 2-4 times with cold D-Hank's solution by re-suspending and collecting by centrifugation with condition as described above. The washed cells were then diluted to the desired cell densities by RPMI-1640 culture medium, containing 10% fetal bovine serum.
(§2) Spleen cells of density 1×10^6/ml were placed onto a 96 wells cell culture plate, 100 μl/well, three parallel wells each of the assay sample and control sample per mouse. To the assay wells, 100 μl/well ConA of 100 μg/ml in RPMI-1640 was added, and 100 μl/well plain RPMI-1640 was used for the controls. The cells were incubated for 66 hrs at 37° C., 5% CO2. The cells were then pelleted by centrifugation at 150 g for 10 minutes.
(§3) 50 μl/well MTT of 1 mg/ml in RPMI-1640 was added to the cell pellet and the cells re-suspended by shaking for 2 minutes. The incubation was continued for 4 hours. The supernatant was discarded after centrifugation at 150 g for 10 minutes. 120 μl 40 mM HCl-2-propanol was added to the cell pellet and shaken for 3 minutes. to obtain OD570nm of each well referenced at 630 nm. An ELISA reader was used
(§4) Each mouse formed three assay wells and three control wells. The Stimulation Index (SI) of each mouse was obtained by first deriving the average OD of the three parallel wells, then dividing the value of the assay wells by the control wells.

T lymphocyte [2] = system: T lymphocyte; design: species or system BALB/c mice; conditions: mouse, in vivo, ip
mononuclear phagocyte = assay: carbon particle clearance test, phagocytotic activity of mononuclear phagocyte; type: in vivo, BALB/c mice; design: key: α = (cube root of K)×(body weight ÷ liver+spleen weight); conditions: IFN-γ and IL-2 groups 3×10^5 IU/kg/day, X ± SD
Outline: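 Mice received India ink (0.1 ml/kg i.v., 5-fold diluted) on day 16, one day after last dosing; blood at 1 and 5 min was lysed in 0.1% Na2CO3 and read at OD680. Clearance index K from log OD decline; phagocytic index α = ∛K × body weight/(liver+spleen weight); thymus and spleen indices as % body weight.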

T lymphocyte [3] = assay: T lymphocyte transformation in mice with ascitic fluid type liver cancer H22; type: in vivo, BALB/c mice
Protocol: as §1, with “Healthy BALB/c mice were randomized into peptide group, rmIFN-γ group, rhIL-2 group, and saline group, 15” for “Ten”, “group, and prepared into H22 carrying mice model as described in section Method 3. After implantation of” for “group. The day after”, “cancer cells, the” for “last”, “substances were administered for 15 days,” for “substance administration,”, “killed” for “sacrificed”, “100-gauge” for “100 gauge”
as §2
as §3, with “3 minutes. Use an ELISA reader to obtain” for “3 minutes. to obtain”, “630 nm.” for “630 nm. An ELISA reader was used”
as §4

L1210 leukemia = assay: survival of mice with transplanted L1210 leukemia; type: in vivo, DBA/2 mice; conditions: for Survival index: versus saline group
Protocol: Intraperitoneal injection, once per day. […] Treatment of all groups with testing substance lasted for 30 days or until the animal died unless otherwise specified.
Stock L1210 cells were incubated in DMEM/F12 medium supplemented with 10% fetal bovine serum, 37° C./5% CO2 for 72 hrs, then washed 3-4 times with Hank's solution, and adjusted to 1×10^5 cells per liter. 0.1 ml of the cell suspension was implanted into the abdominal cavity of several healthy DBA mice for 6-8 days. The mice were then killed by cervical vertebra dislocation and their ascitic fluid collected aseptically. The cell concentration of the collected ascitic fluid was adjusted to 1×10^5 per ml with Hank's solution. 0.1 ml of the cell suspension was implanted into each of the testing animal and the survival data of the animals recorded. Treatment started in the testing animals as described in section Method 1. Mean survival day was obtained by the Kaplan-meier method in the Survival option of the SPSS software. If the animal survived longer than the experiment, the survival days was entered as the duration of the experiment. The survival index was calculated according to the following formula: Survival index=(mean survival days of treatment group−mean survival days of control group)÷mean survival days of control group 6. The Effect of Peptides on the Humoral Immunity of C57BL/6 Mice Bearing Transplanted B16 Melanoma, and that on the Metastatic Potential of the Inoculated Melanoma Cells

[4] = peptide 5 μg/kg/day i.p. 15 days
[5] = peptide 50 μg/kg/day i.p. 15 days
[6] = peptide 500 μg/kg/day i.p. 15 days
[7] = peptide 0.5 μg/kg/day i.p. 15 days
[8] = 3 × 10^5 IU/kg i.p. once per day

Row | Molecule | stimulation index (T lymphocyte transformation) (T lymphocyte [1]; [4]) | activity of T lymphocyte in secreting IFN (T lymphocyte [2]) | phagocytotic index (mononuclear phagocyte; [4]) | phagocytotic index (mononuclear phagocyte; [6]) | stimulation index (T lymphocyte transformation) (T lymphocyte [1]; [7]) | stimulation index (T lymphocyte transformation) (T lymphocyte [1]; [6]) | Stimulation index (T lymphocyte [3]; 0.5 μg/kg i.p. once per day) | further results
1 | FNFVPP [CMS003] | 1.6 ± 0.2 | 106 ± 16 IU | 6.9 ± 0.9*^ | 6.6 ± 0.7 | – | – | – | stimulation index (T lymphocyte transformation) (T lymphocyte [1]; [5]): 2.2 ± 0.5*^@^
2 | IGMESAGIHETTY [CMS016] | – | 162 ± 19*^@^ IU | 6.9 ± 0.8*^ | – | – | – | – | –
3 | KAVGHLDDLPGAL [CMS008] | – | – | 6.4 ± 0.5 | 6.5 ± 1.2 | 1.7 ± 0.3 | – | – | –
4 | LRVAPEEHPTL [CMS009] | – | 121 ± 15*^ IU | 6.9 ± 0.9*^ | – | – | 1.7 ± 0.2 | – | –
5 | PSIVGRPRHQGVM [CMS015] | – | – | – | – | – | 1.9 ± 0.3*^@^ | – | –
6 | PTTKTYFPHF [CMS001] | 1.7 ± 0.2 | – | – | – | – | – | – | stimulation index (T lymphocyte transformation) (T lymphocyte [1]; [5]): 2.2 ± 0.5*^@^
7 | Phe Val Asn Asp (FVND; listed as Sus scrofa) [CMS035] | – | – | 6.9 ± 0.9*^ | – | – | – | 1.40 ± 0.13*^$ | Stimulation index (T lymphocyte [3]; 5 μg/kg i.p. once per day): 1.46 ± 0.16*^$; Survival days (L1210 leukemia; 0.5 μg/kg i.p. once per day): 29.3 ± 15.4 days; Survival index (L1210 leukemia; 0.5 μg/kg i.p. once per day): 76.1%
8 | Pro Glu Asn Phe (PENF; listed as Sus scrofa) [CMS034] | 1.5 ± 0.2 | – | – | – | – | – | 1.37 ± 0.10*^$ | –
9 | RVAPEEHPTL [CMS011] | – | 89 ± 18 IU | 6.4 ± 1.1 | – | 1.6 ± 0.4 | – | – | –
10 | Tyr Ser Leu (YSL; listed as Sus scrofa) [CMS024] | – | – | – | 6.4 ± 1.0 | – | – | 1.46 ± 0.19*^$ | phagocytotic index (mononuclear phagocyte; [7]): 6.7 ± 0.5*^; phagocytotic index (mononuclear phagocyte; [5]): 6.6 ± 0.7; Stimulation index (T lymphocyte [3]; 5 μg/kg i.p. once per day): 1.45 ± 0.21*^$
11 | VAPEEHPTLLTEAPLNPK [CMS010] | – | 167 ± 13*^@^ IU and 142 ± 18*^@^ IU | 7.1 ± 0.7*^ | – | 1.7 ± 0.3 | 2.0 ± 0.3*^@^ | – | Stimulation index (T lymphocyte [3]; 500 μg/kg i.p. once per day): 1.45 ± 0.21*^$
12 | VGMGQKDSY [CMS019] | – | – | 6.8 ± 0.6*^ | – | – | 1.8 ± 0.3 | 1.50 ± 0.19*^$ | phagocytotic index (mononuclear phagocyte; [5]): 6.7 ± 0.9*^; Survival days (L1210 leukemia; 0.5 μg/kg i.p. once per day): 21.1 ± 5.8 days; Survival index (L1210 leukemia; 0.5 μg/kg i.p. once per day): 26.8%
13 | IFN-γ: recombinant mouse interferon-γ, Beijing Biotech Inc.; positive control immunostimulant (protein, UniProt P01580 23-155, looked up) Interferon gamma: HGTVIESLESLNNYFNSSGIDVEEKSLFLDIWRNWQKDGDMKILQSQIISFYLRLFEVLKDNQAISNNISVIESHLITTFFSNSKAKKDAFMSIAKFEVNNPQVQRQAFNELIRVVHQLLPESSLRKRKRSRC | 1.6 ± 0.2 | 139 ± 16 IU and 125 ± 18 IU and 124 ± 16 IU | 6.4 ± 0.9 | 6.4 ± 0.9 | 1.6 ± 0.2 | 1.6 ± 0.2 | – | stimulation index (T lymphocyte transformation) (T lymphocyte [1]; [5]): 1.7 ± 0.2; phagocytotic index (mononuclear phagocyte; [7]): 6.4 ± 0.9; phagocytotic index (mononuclear phagocyte; [5]): 6.4 ± 0.9; Stimulation index (T lymphocyte [3]; [8]): 1.27 ± 0.14; Survival days (L1210 leukemia; [8]): 15.6 ± 2.2 days
